In patent US20160310607A1, “CELL TRANSPORT” (CUPID PEPTIDE COMPANY LIMITED, priority 2013, published 2016):
“Also recorded” adds a separate entry of the source. No end group written: not given here.

Key:
[1] = test system: Dictyostelium cAMP-dependent Protein Kinase (DdPKA); assay: PKA-dependent aggregation of starved Dictyostelium cultures; assay type: cell-based, Dictyostelium discoideum; settings: 10 micromolar peptide
Experimental: FIG. 6. Cupid can transport small molecule cargo into cells. Starved Dictyostelium cultures were treated with no peptide (A), cupid B peptide (B), PKI peptide (C) and Cupid B-PKI peptide (D) and analysed for aggregation.
Upon starvation Dictyostelium initiates a developmental program leading to the aggregation of free-living amoebae. Genetic research has uncovered the crucial role that cyclic adenosine monophosphate (cAMP) plays in orchestrating as an extracellular chemoattractant in the initial aggregation process through Dictyostelium cAMP-dependent Protein Kinase (DdPKA). DdPKA can be inhibited by PKI, a 20 amino acid peptide sequence derived from an inhibitor of PKA, by PKI binding directly to the catalytic unit of PKA.
By creating a Cupid B-PKI fusion protein we aimed to establish that it prevents starving Dictyostelium cells from aggregating in vivo.

[2] = test system: Dictyostelium discoideum amoeba cells; assay: Permeation of FITC-labelled peptides into cultured Dictyostelium cells (fluorescence microscopy); assay type: cell-based; settings: FITC-labelled peptide, 10 micromolar, 1 hour
Experimental: Peptides were labelled with Fluorescein isothiocyanate (FITC) using a FITC labeling kit as per instructions (Pierce, UK). When added to cell cultures the labeled peptides were visualized using a fluorescent microscope by exciting the FITC with a 488 nm spectral line, argon-ion laser (Excitation wavelength of 494 nm and an Emission wavelength of 518 nm).
AX2 wild type Dictyostelium cells were grown on SM agar plates seeded with Aerobacter aerogenes bacteria (also known as Klebsiella aerogenes) as a food source.
Cupid A ([…]) and Cupid B ([…]) were chemically synthesized labelled with FITC at the amino terminal. The peptides were added to cultured eukaryotic cells of Dictyostelium discoideum amoeba for varying amounts of time up to 2 hours. Cells were then washed and prepared for examination under a fluorescent microscope (FIG. 1). The time courses of permeation were compared to the class 3 CPP, the Antennapedia peptide, pANT which was also labelled with FITC in chemical synthesis (FIG. 2).

Sequence | effect on aggregation of starved Dictyostelium cultures [1] | effect on aggregation of starved Dictyostelium cultures ([1]; listed as Cupid-PKI) | cell permeation (fluorescence microscopy) [2]
TTYADRASGRTGRRNAND [PKI, reference compound] | neither the Cupid B peptide nor the PKI peptide alone have any effect on aggregation; also recorded: cells aggregated into tight masses |  | 
RRVQIWFQNKRAKVKR [Cupid B, cell penetrating peptide from the genome of Dictyostelium discoideum] | neither the Cupid B peptide nor the PKI peptide alone have any effect on aggregation; also recorded: cells aggregated into tight masses |  | 
HHHHHHRRVQIWFQNKRAKVKRIDTTYADRASGRTGRRNAIHD (also: FITC label, site not given here) [Cupid B-PKI, Cupid B-PKI fusion protein with 6x Histidine, made recombinantly in E. coli; FITC-labelled for microscopy] | completely attenuating | failed to aggregate | cell permeable
